These results are taken from patent US9757378B2, “Methods to modulate acute myeloid leukemia stem/progenitor cell expansion and/or differentiation” (UNIVERSITE DE MONTREAL, priority 2013, dated 2017).

This series concerns primary human AML cells. Kind of series: Primary screen: differentiation of primary human AML cells in vitro (CD34/CD15, HTS flow cytometry). Conditions: for percent gated cells (viability): 2 μM (commercial libraries) or 1 μg/ml (IRIC); for % increase CD34+ (%) / % increase CD34+ (cell counts) / % increase CD34+CD15− (cell counts): compared to DMSO; for % increase CD34+CD15− (%): compared to DMSO ((compound − DMSO)/DMSO*100); for CD34+CD15− cell counts compared to DMSO: in words. On the technique in general: In flow cytometry, cells or beads pass a laser one at a time.

Protocol: AML cells were thawed in 37° C. water bath and 1:10 diluted in prewarmed Iscove's modified Dulbecco's medium (IMDM) containing 20% FBS and DNase 100 μg/ml. […] When compounds were added to the culture medium, final DMSO concentrations were 0.1% in all in vitro experiments and 0.01% when cultured cells were transplanted into NSG-mice.
Compounds were tested at 2 μM (commercial libraries) or 1 μg/ml (Medicinal Chemistry Facility, IRIC). […] For validation experiments AML cells were grown in 384-well plates with 3-8 replicates per condition.
Flow cytometry was performed on an LSR™ II cytometer equipped with an HTS-device (BD Bioscience, Primary and Secondary screens and in vitro validation experiments) or on a BD Canto™ II cytometer (BD Bioscience, Xenotransplantation and CellTrace Violet™ experiments). Cells were stained for 30 minutes at 4° C. protected from light if not otherwise indicated (CellTrace Violet™ staining). […] CD34 intensities in flow cytometry plots were set at high levels on day 0 to allow tracing of non-predictable decreases of intensities during 7 days in culture.

For `COc1ccc2c(c1)[nH]c1c(C)nccc12.Cl` [UM0118303, Harmine hydrochloride], the “percent gated cells (viability)” value is on record as 78.60%, the “% increase CD34+ (%)” value is on record as 8.79%, the “% increase CD34+ (cell counts)” value was −17.08% and the “% increase CD34+CD15− (cell counts)” value is on record as 38.52%. The “% increase CD34+CD15− (%)” value worked out at 81.33%.

For the molecule `O=c1c2ccccc2oc2ccc(O)cc12` [UM0121186, 2-Hydroxyxanthone], the “percent gated cells (viability)” value turned out to be 82.40%, the “% increase CD34+ (%)” value was determined as 48.93%, the “% increase CD34+ (cell counts)” value was 48.11% and the “% increase CD34+CD15− (cell counts)” value was 65.21%. In addition, the “% increase CD34+CD15− (%)” value was 66.25%.

As to `CCOC(=O)c1oc2c(OC)c(O)cc(O)c2c(=O)c1-c1cc(OC)c(OC)c(OC)c1` [UM0121233, 2-Ethoxycarbonyl-5,7-dihydroxy-8,3′,4′,5′-tetramethoxyisoflavone], the “percent gated cells (viability)” value was 86.30%, the “% increase CD34+ (%)” value was 15.01%, the “% increase CD34+ (cell counts)” value amounted to 18.21% and the “% increase CD34+CD15− (cell counts)” value is reported as 50.24%. The “% increase CD34+CD15− (%)” value was 45.77%.

For the molecule `OC[C@@H]1CCCN2CCCC[C@H]12` [UM0119416, Lupinine], the “% increase CD34+ (%)” value was 10.12%, the “% increase CD34+ (cell counts)” value was 30.63%, the “% increase CD34+CD15− (cell counts)” value amounted to 51.77% and the “% increase CD34+CD15− (%)” value is 28.13%.

Turning to `Cc1cc(=O)oc2cc(O)c(O)cc12` [UM0120835, 4-Methylesculetin], the “percent gated cells (viability)” value is listed as 84.90%, the “% increase CD34+ (%)” value worked out at 22.85%, the “% increase CD34+ (cell counts)” value turned out to be 18.23% and the “% increase CD34+CD15− (cell counts)” value was 104.34%. For the same molecule, the “% increase CD34+CD15− (%)” value stood at 111.64%.

Turning to `CC(=O)c1ccc2c(c1)N(CCCN(C)C)c1ccccc1S2.O=C(O)/C=C\C(=O)O` [UM0118758, Acetopromazine maleate salt], the “% increase CD34+ (%)” value is listed as −0.82%, the “% increase CD34+ (cell counts)” value is recorded as −11.68%, the “% increase CD34+CD15− (cell counts)” value is reported as 41.15% and the “% increase CD34+CD15− (%)” value is reported as 57.85%.

Regarding `N[C@@H]1C[C@H]1c1ccccc1.N[C@H]1C[C@@H]1c1ccccc1.O=S(=O)(O)O` [UM0121497, Tranylcypromine sulfate], the “percent gated cells (viability)” value is listed as 76.50%, the “% increase CD34+ (%)” value was 20.22%, the “% increase CD34+ (cell counts)” value is reported as −15.83% and the “% increase CD34+CD15− (cell counts)” value stood at 19.65%. The “% increase CD34+CD15− (%)” value turned out to be 70.66%.

Consider `COc1cc2c(cc1O)C[C@H]1c3c(cc(O)c(OC)c3-2)CCN1C` [UM0118103, Boldine], for which the “percent gated cells (viability)” value came out at 87.00%, the “% increase CD34+ (%)” value is recorded as −3.69%, the “% increase CD34+ (cell counts)” value was found to be 10.21% and the “% increase CD34+CD15− (cell counts)” value was determined as 50.97%. In addition, the “% increase CD34+CD15− (%)” value was found to be 31.10%.

Consider `CC(C)=CCc1c(O)cc2oc(C)cc(=O)c2c1O` [UM0121217, Peucenin], for which the “percent gated cells (viability)” value is on record as 83.20%, the “% increase CD34+ (%)” value is 23.46%, the “% increase CD34+ (cell counts)” value is recorded as 37.27% and the “% increase CD34+CD15− (cell counts)” value came out at 94.61%. Also, the “% increase CD34+CD15− (%)” value was found to be 74.92%.

On to `COc1cc(OC)c2c(=O)cc(-c3ccccc3)oc2c1` [UM0121173, 5,7-Dimethoxyflavone], for which the “percent gated cells (viability)” value was found to be 82.00%, the “% increase CD34+ (%)” value is given as 29.43%, the “% increase CD34+ (cell counts)” value is 34.90% and the “% increase CD34+CD15− (cell counts)” value stood at 53.11%. Also, the “% increase CD34+CD15− (%)” value worked out at 46.97%.

For `C[C@]12CCC(=O)C=C1CC[C@@H]1[C@@H]2CC[C@]2(C)C(=O)CC[C@@H]12` [UM0119559, 4-Androstene-3,17-dione], the “percent gated cells (viability)” value stood at 82.30%, the “% increase CD34+ (%)” value is listed as 1.57%, the “% increase CD34+ (cell counts)” value was −20.76% and the “% increase CD34+CD15− (cell counts)” value was found to be 20.14%. Besides, the “% increase CD34+CD15− (%)” value came out at 53.81%.

Take `Nc1ccccc1C(=O)CC(N)C(=O)O` (stereo not shown) [Kynurenine]: the “CD34+CD15− cell counts compared to DMSO” value is recorded as “further reduced”.

In the case of `Oc1ccc(C=Cc2cc(O)cc(O)c2)cc1` [UM0118532, Resveratrol], the “percent gated cells (viability)” value amounted to 78.00%, the “% increase CD34+ (%)” value worked out at 22.62%, the “% increase CD34+ (cell counts)” value was −14.19% and the “% increase CD34+CD15− (cell counts)” value is listed as 12.57%. For the same molecule, the “% increase CD34+CD15− (%)” value is 60.46%.

`COc1cc(-c2oc3cc(O)ccc3c(=O)c2O)ccc1O` [UM0119468, Geraldol]: the “percent gated cells (viability)” value amounted to 78.50%, the “% increase CD34+ (%)” value is listed as 25.29%, the “% increase CD34+ (cell counts)” value is −41.47% and the “% increase CD34+CD15− (cell counts)” value is reported as −23.14%. Moreover, the “% increase CD34+CD15− (%)” value was found to be 64.06%.

On to `Oc1cc(O)cc(/C=C/c2ccccc2)c1` [UM0120964, Pinosylvin], for which the “percent gated cells (viability)” value is given as 69.90%, the “% increase CD34+ (%)” value was 24.20%, the “% increase CD34+ (cell counts)” value worked out at 8.62% and the “% increase CD34+CD15− (cell counts)” value amounted to 39.69%. Besides, the “% increase CD34+CD15− (%)” value was 59.46%.

As for `CO[C@@H]1[C@H](OC(=O)/C=C/C=C/C=C/C=C/C(=O)O)CC[C@]2(CO2)[C@H]1[C@@]1(C)O[C@@H]1CC=C(C)C` [UM0121512, Fumagillin], the “percent gated cells (viability)” value amounted to 78.60%, the “% increase CD34+ (%)” value is 31.22%, the “% increase CD34+ (cell counts)” value is given as −54.59% and the “% increase CD34+CD15− (cell counts)” value was −46.09%. In addition, the “% increase CD34+CD15− (%)” value is recorded as 55.51%.

Take `CC(C)Oc1ccc2c(=O)c(-c3ccccc3)coc2c1` [UM0120559, Ipriflavone]: the “% increase CD34+ (%)” value is 27.34%, the “% increase CD34+ (cell counts)” value worked out at 39.89%, the “% increase CD34+CD15− (cell counts)” value amounted to 54.50% and the “% increase CD34+CD15− (%)” value turned out to be 40.47%.

On to `NC(=Nc1ccccc1)NC(=O)c1nc(Cl)c(N)nc1N` [UM0120143, Phenamil methanesulfonate], for which the “percent gated cells (viability)” value amounted to 84.10%, the “% increase CD34+ (%)” value came to 30.88%, the “% increase CD34+ (cell counts)” value stood at 28.04% and the “% increase CD34+CD15− (cell counts)” value is 54.83%. For the same molecule, the “% increase CD34+CD15− (%)” value came to 58.21%.

Take `COc1ccc(C2CC(=O)c3ccc(OC)cc3O2)cc1` (stereo not shown) [UM0120851, Liquiritigenin dimethylether]: the “percent gated cells (viability)” value is 81.20%, the “% increase CD34+ (%)” value worked out at 34.97%, the “% increase CD34+ (cell counts)” value amounted to 31.66% and the “% increase CD34+CD15− (cell counts)” value came out at 59.21%. The “% increase CD34+CD15− (%)” value is listed as 63.25%.

Turning to `O.O.O=c1c(O)c(-c2ccc(O)c(O)c2)oc2cc(O)cc(O)c12` [UM0118473, Quercetine dihydrate], the “% increase CD34+ (%)” value stood at 15.71%, the “% increase CD34+ (cell counts)” value was found to be 6.69%, the “% increase CD34+CD15− (cell counts)” value was 69.64% and the “% increase CD34+CD15− (%)” value was determined as 83.29%.

Regarding `COc1ccc(-c2cc(=O)c3ccc(O)cc3o2)cc1` [UM0117304, Pratol], the “percent gated cells (viability)” value is listed as 82.40%, the “% increase CD34+ (%)” value worked out at 50.40%, the “% increase CD34+ (cell counts)” value stood at 31.59% and the “% increase CD34+CD15− (cell counts)” value is reported as 47.36%. Besides, the “% increase CD34+CD15− (%)” value is reported as 68.85%.

As to `CC(=O)Oc1ccc(-c2cc(=O)c3c(OC(C)=O)cc(OC(C)=O)cc3o2)cc1` [UM0121171, Apigenin triacetate], the “percent gated cells (viability)” value worked out at 80.10%, the “% increase CD34+ (%)” value stood at 48.36%, the “% increase CD34+ (cell counts)” value turned out to be 17.48% and the “% increase CD34+CD15− (cell counts)” value came out at 31.61%. The “% increase CD34+CD15− (%)” value turned out to be 66.25%.

As to `COc1ccc(-c2cc(=O)c3c(OC(C)=O)cc(OC(C)=O)cc3o2)cc1` [UM0120987, Acacetin diacetate], the “percent gated cells (viability)” value amounted to 81.60%, the “% increase CD34+ (%)” value amounted to 27.58%, the “% increase CD34+ (cell counts)” value stood at 22.16% and the “% increase CD34+CD15− (cell counts)” value was determined as 53.47%. Also, the “% increase CD34+CD15− (%)” value stood at 59.88%.

Consider Verteporfin [UM0119121], for which the “% increase CD34+ (%)” value is reported as 15.38%, the “% increase CD34+ (cell counts)” value is recorded as 33.14%, the “% increase CD34+CD15− (cell counts)” value amounted to 58.17% and the “% increase CD34+CD15− (%)” value was determined as 37.29%.

Take `O=c1c(O)c(-c2ccccc2)oc2cc(O)cc(O)c12` [UM0119448, Galangine]: the “% increase CD34+ (cell counts)” value is −0.57%, the “% increase CD34+CD15− (cell counts)” value was determined as 23.06% and the “% increase CD34+CD15− (%)” value came to 60.64%.

Turning to `N[C@@H](Cc1c[nH]c2ccccc12)C(=O)O` [Tryptophan], the “CD34+CD15− cell counts compared to DMSO” value is reported as “further reduced”.

Regarding `COc1c(-c2ccccc2)oc2c(OC)cccc2c1=O` [UM0121168, 3,8-Dimethoxyflavone], the “percent gated cells (viability)” value was found to be 80.80%, the “% increase CD34+ (%)” value amounted to 29.05%, the “% increase CD34+ (cell counts)” value was found to be 24.97% and the “% increase CD34+CD15− (cell counts)” value amounted to 53.85%. For the same molecule, the “% increase CD34+CD15− (%)” value was 58.96%.

For the molecule `CC[C@H](C)C(=O)O[C@H]1C[C@@H](C)C=C2C=C[C@H](C)[C@H](CC[C@@H]3C[C@@H](O)CC(=O)O3)[C@H]21` [UM0118699, Lovastatin], the “percent gated cells (viability)” value is 81.00%, the “% increase CD34+ (%)” value was 1.88%, the “% increase CD34+ (cell counts)” value is −14.30% and the “% increase CD34+CD15− (cell counts)” value was 36.94%. For the same molecule, the “% increase CD34+CD15− (%)” value was determined as 62.41%.

As for `CCOC(=O)c1c(C)cc(O)c(C)c1O` [UM0120789, Methylorsellinic acid ethyl ester], the “percent gated cells (viability)” value worked out at 84.00%, the “% increase CD34+ (%)” value was found to be 22.49%, the “% increase CD34+ (cell counts)” value stood at 22.38% and the “% increase CD34+CD15− (cell counts)” value was 52.88%. For the same molecule, the “% increase CD34+CD15− (%)” value was determined as 52.70%.
